Measurements reported in patent publication US8138119B2, “Alkoxyalkyl spirocyclic tetramic acids and tetronic acids” (Bayer Cropscience AG, priority 2005, dated 2012).

What was measured:
Type in all cases: in vivo
[1] = system: cereal; experiment: Profiling test, herbicidal post-emergence action with safener: container trials with cereal in a greenhouse, Mefenpyr 1 day prior to herbicide application; conditions: summer barley, 28 days after application, 25 g of a.i./ha, without safener
Procedure: Seeds of monocotyledonous and dicotyledonous weed and crop plants are placed in sandy loam soil in wood fibre pots or in plastic pots, covered with soil and cultivated in a greenhouse, during the vegetation period also outdoors outside of the greenhouse, under good growth conditions. 2-3 weeks after sowing, the test plants are treated at the one- to three-leaf stage. The test compounds, formulated as wettable powders (WP) or liquid (EC), are, in various dosages with a water application rate of 300 l/ha (converted), with wetting agent (0.2 to 0.3%) added, sprayed onto the plants and the surface of the soil. […]
(§1) If it is additionally to be tested as to whether safeners can improve the plant compatibility of test substances in the case of crop plants, the following options are used for applying the safener: • seeds of the crop plants are, before sowing, dressed with the safener substance (the amount of safener stated in percent, based on the weight of the seed) • before the application of the test substances, the proper plants are sprayed with the safener at a certain application rate per hectare (usually 1 day before the application of the test substances) • the safener is applied together with the test substance as a tank mix (the amount of safener stated in g/ha or as a ratio, based on the herbicide).
(§2) By comparing the effect of the test substances on crop plants without or with safener treatment, it is possible to assess the effect of the safener substance.

[2] = system: maize; experiment: Profiling test, herbicidal pre-emergence action with safener: container trials with maize in the greenhouse, Ex. II-e-5 1 day prior to herbicide application; conditions: 28 days after application, without safener
Procedure: Seeds of monocotyledonous and dicotyledonous weed and crop plants are placed in sandy loam soil in wood fibre pots or in plastic pots and covered with soil. The pots are watered slightly, and the soil surface is then treated with various dosages of the test compounds, formulated as wettable powders (WP) or liquid (EC), at a water application rate of 300 l/ha (converted). The pots with the plants are cultivated in a greenhouse, during the vegetation period also outdoors outside of the greenhouse, under good growth conditions. 3-4 weeks after sowing and the treatment of the pots, the activity of the preparations is rated visually in comparison to untreated controls (herbicidal activity in percent (%): 100% activity=the plants have died, 0% activity=like control plants).
as §1, with “pots of crop” for “proper”
as §2

[3] = system: caterpillars of the diamondback moth (Plutella xylostella); experiment: Plutella test (PLUTMA); conditions: 100 ppm, cabbage leaves dipped
Procedure: (§3) Solvent: 7 parts by weight of dimethylformamide
(§4) Emulsifier: 2 parts by weight of alkylaryl polyglycol ether
(§5) To produce a suitable preparation of active compound, 1 part by weight of active compound is mixed with the stated amounts of solvent and emulsifier, and the concentrate is diluted with emulsifier-containing water to the desired concentration.
Cabbage leaves (Brassica oleracea) are treated by being dipped into the active compound preparation of the desired concentration and populated with caterpillars of the diamondback moth (Plutella xylostella) while the leaves are still moist.
(§6) After the desired period of time, the kill in % is determined. 100% means that all caterpillars have been killed; 0% means that none of the caterpillars have been killed.

[4] = system: caterpillars of the armyworm (Spodoptera exigua, resistant strain); experiment: Spodoptera exigua test; resistant strain (SPODEX R); conditions: 100 ppm, cabbage leaves dipped
Procedure: as §3, §4, §5
Cabbage leaves (Brassica oleracea) are treated by being dipped into the active compound preparation of the desired concentration and populated with caterpillars of the armyworm (Spodoptera exigua, resistant strain) while the leaves are still moist.
as §6

[5] = system: caterpillars of the armyworm (Spodoptera exigua); experiment: Spodoptera exigua test (SPODEX); conditions: 100 ppm, cabbage leaves dipped
Procedure: as §3, §4
To produce a suitable preparation of active compound, 1 part by weight of active compound is mixed with the stated amounts of solvent and emulsifier, and the concentrate is diluted with water to the desired concentration.
Cabbage leaves (Brassica oleracea) are treated by being dipped into the active compound preparation of the desired concentration and populated with caterpillars of the armyworm (Spodoptera exigua) while the leaves are still moist.
as §6

In the case of `CCc1cc(Cl)cc(OC)c1C1=C(O)C2(CCC(COC)CC2)NC1=O` (single isomer, unassigned) [Example I-1-a-4], the “Summer barley observed (%)” value [1] is reported as 50%, the “Maize - Arsenal observed (%)” value ([2]; 12.5 g of a.i./ha) is reported as 40% and the “Maize - Arsenal observed (%)” value ([2]; 25 g of a.i./ha) is reported as 65%.
With `CCOC(=O)OC1=C(c2c(Br)cc(C)cc2CC)C(=O)NC12CCC(COC)CC2` (single isomer, unassigned) [Example I-1-c-6] the “Maize - Cecilia observed (%)” value ([2]; 12.5 g of a.i./ha) was 60%.
In the case of `COCC1CCC2(CC1)NC(=O)C(c1cc(-c3ccc(Cl)cc3)ccc1C)=C2O` (single isomer, unassigned) [Example I-1-a-5], the “efficacy (kill of caterpillars)” value [3] is reported as at least 80%, the “efficacy (kill of caterpillars)” value [4] is reported as at least 80% and the “efficacy (kill of caterpillars)” value [5] is reported as at least 80%.
With `CCOC(=O)OC1=C(c2c(CC)cc(Cl)cc2OC)C(=O)NC12CCC(COC)CC2` (single isomer, unassigned) [Example I-1-c-7] the “Maize - Arsenal observed (%)” value ([2]; 25 g of a.i./ha) was 60%.
With `CCOC(=O)OC1=C(c2c(C)cc(C)cc2C)C(=O)NC12CCCC(COC)C2` (single isomer, unassigned) [Example I-1-c-9] the “Maize - Cecilia observed (%)” value ([2]; 100 g of a.i./ha) was 50%.
